Several values for one entry are separate records, joined by “and”; a condition that tells them apart may be missing. Equal values may be shown once.
Tested on: NIH 3T3 cells
Experiment: Cationic liposome-mediated transfection of cultured cells, luciferase assay
Assay type: cell-based, murine
Details: for Luciferase activity, Average / Luciferase activity, Trial 1 to Trial 4: 48 hours; for Luciferase activity, Trial 1 to Trial 4: individual trials
Procedure: In one embodiment, an appropriate mass of cationic lipid and the neutral lipid dioleoylphosphatidylethanolamine (DOPE) was added as solutions in chloroform to 1.9 mL sample vials to yield the desired molar ratio of cationic lipid:DOPE. The chloroform was removed via rotary evaporation at 37° C. The resulting thin lipid films were placed under vacuum overnight to insure that all traces of solvent have been removed. The lipid mixture was resuspended in 1 mL sterile water at 25° C. until the film is hydrated, and then vortex mixed to afford an emulsion. For the in vitro experiments, these emulsions were formulated as a cationic lipid concentration of 1 mM. For the in vivo experiments, the emulsions were formulated at a cationic lipid concentration of 3 mM.
NIH 3T3 cells were obtained from ATCC (CRL 1658), cultured in Dulbecco's Modified Eagle's Medium with ten percent calf serum, and plated on standard 24 well tissue culture plates 24 hours prior to transfection. Cells were approximately eighty percent confluent at the time of transfection.
NIH 3T3 cells were plated onto 24 well tissue culture plates as described in section 6.1.10. The growth media was removed via aspiration and the cells were washed once with 0.5 mL PBS/well. The liposome/transition metal/nucleic acid solutions were formed through sequential addition of appropriate amounts of DMEM (without serum), the liposome solution (1:1 N,N-[Bis(2-hydroxyethyl)]-N-methyl-N-[2,3-bis(tetradecanoyloxy)propyl] ammonium chloride (DMDHP):DOPE, zinc chloride, and the plasmid DNA pCMV.FOX.Luc.2. The amount of liposome solution used depended on the desired cationic lipid to DNA phosphate ratio. The addition of these substances was followed by thorough vortex mixing and incubation for 15 minutes at room temperature. A 200 microliter aliquot of the resultant transfection complex was added to each well (1 microgram DNA/well, n=4) and the cells were incubated for 4 hours, at 37° C. At this time, 500 microliters of DMEM+10% calf serum/well was added and the cells cultured for approximately 48 hours prior to lysis and analysis. The sample transfections were subsequently repeated a minimum of three times prior to lysis and analysis.
The presently claimed invention describes a new method using a combination of cationic lipid, transition metal enhancer and a nucleic acid of interest for gene delivery. The present invention provides a method that may enhance gene expression by improving the efficiency of gene delivery. This change in gene expression can be quantitated using various assays, such as the luciferase assay. de Wet et al., Molec. Cell Biol. 7:725, 1987. In in vitro experiments described herein in which a cationic lipid/transition metal enhancer/nucleic acid complex was used, the cells were lysed, using a lysis buffer, 48 hours post administration of the pCMV.FOX.Luc-2 containing solution. The lysis buffer contained 100 mM K2PO4 pH 7.0, 1 mM dithiothreitol, and 1% Triton X-100. A 25 μl aliquot of the lysate was analyzed for luciferase activity (de Wet et al., Molec. Cell Biol. 7:725, 1987) using a Monolight 2010 luminometer (Analytical Luminescence Laboratories). Accordingly, luciferase light emissions from each aliquot of the lysis homogenate were measured over a ten second period. Activity was expressed as relative light units, values collectively representing the assay conditions, luciferase concentration, luminometer photomultiplier tube sensitivity and background. Using well known techniques, the luciferase light units may be converted, for example, to picograms of luciferase protein. See, e.g., Felgner et al., U.S. Pat. No. 5,580,899 at Example 13.
To perform this study, cationic lipid/nucleic acid/zinc mixtures were prepared by mixing appropriate amounts of serum-free DMEM, cationic liposomes, zinc chloride and pCMV.FOX.Luc.2 plasmid DNA in a polystyrene tube. […]

[1] = charge ratio 0.5, ZnCl2 1000 μM
[2] = charge ratio 0.75, ZnCl2 0.1 μM
[3] = charge ratio 0.75, ZnCl2 100 μM
[4] = charge ratio 0.75, ZnCl2 1000 μM

[Cl-].[Cl-].[Zn+2] [ZnCl2, zinc chloride]
Luciferase activity, Average (charge ratio 0.5, ZnCl2 0.1 μM): 357320 relative light units
Luciferase activity, Average (charge ratio 0.5, ZnCl2 1 μM): 289649.8 relative light units
Luciferase activity, Average (charge ratio 0.5, ZnCl2 10 μM): 296498.3 relative light units
Luciferase activity, Average (charge ratio 0.5, ZnCl2 100 μM): 690512.3 relative light units
Luciferase activity, Average [1]: 44053.75 relative light units
Luciferase activity, Average [2]: 528118.8 relative light units
Luciferase activity, Average (charge ratio 0.75, ZnCl2 1 μM): 141950 relative light units
Luciferase activity, Average (charge ratio 0.75, ZnCl2 10 μM): 397689.3 relative light units
Luciferase activity, Average [3]: 334007.5 relative light units
Luciferase activity, Average [4]: 298625.5 relative light units
Luciferase activity, Average (charge ratio 1, ZnCl2 0.1 μM): 931446.8 relative light units
Luciferase activity, Average (charge ratio 1, ZnCl2 1 μM): 835699.8 relative light units
Luciferase activity, Average (charge ratio 1, ZnCl2 10 μM): 1366067 relative light units
Luciferase activity, Average (charge ratio 1, ZnCl2 100 μM): 359188.5 relative light units
Luciferase activity, Average (charge ratio 1, ZnCl2 1000 μM): 414392 relative light units
Luciferase activity, Average (charge ratio 2, ZnCl2 0.1 μM): 677663.5 relative light units
Luciferase activity, Average (charge ratio 2, ZnCl2 1 μM): 747069.5 relative light units
Luciferase activity, Average (charge ratio 2, ZnCl2 10 μM): 1215879 relative light units
Luciferase activity, Average (charge ratio 2, ZnCl2 100 μM): 827479.8 relative light units
Luciferase activity, Average (charge ratio 2, ZnCl2 1000 μM): 109543.8 relative light units
enhancement of in vitro transfection by added zinc (depending on the cationic lipid to nucleic acid charge ratio): two to forty
Luciferase activity, Trial 1 to Trial 4 (charge ratio 0.5, ZnCl2 0.1 μM): 487868 relative light units and 426369 relative light units and 256897 relative light units and 258146 relative light units
Luciferase activity, Trial 1 to Trial 4 (charge ratio 0.5, ZnCl2 1 μM): 385049 relative light units and 200471 relative light units and 304108 relative light units and 268971 relative light units
Luciferase activity, Trial 1 to Trial 4 (charge ratio 0.5, ZnCl2 10 μM): 325001 relative light units and 323001 relative light units and 250110 relative light units and 287881 relative light units
Luciferase activity, Trial 1 to Trial 4 (charge ratio 0.5, ZnCl2 100 μM): 351939 relative light units and 252969 relative light units and 294018 relative light units and 1863123 relative light units
Luciferase activity, Trial 1 to Trial 4 [1]: 43835 relative light units and 40236 relative light units and 59395 relative light units and 32749 relative light units
Luciferase activity, Trial 1 to Trial 4 [2]: 613179 relative light units and 556656 relative light units and 437658 relative light units and 504982 relative light units
Luciferase activity, Trial 1 to Trial 4 (charge ratio 0.75, ZnCl2 1 μM): 127339 relative light units and 236302 relative light units and 123913 relative light units and 80246 relative light units
Luciferase activity, Trial 1 to Trial 4 (charge ratio 0.75, ZnCl2 10 μM): 455299 relative light units and 465986 relative light units and 362168 relative light units and 307304 relative light units
Luciferase activity, Trial 1 to Trial 4 [3]: 404983 relative light units and 351094 relative light units and 358591 relative light units and 221362 relative light units
Luciferase activity, Trial 1 to Trial 4 [4]: 335343 relative light units and 257292 relative light units and 374511 relative light units and 227356 relative light units
Luciferase activity, Trial 1 to Trial 4 (charge ratio 1, ZnCl2 0.1 μM): 901184 relative light units and 862221 relative light units and 1113520 relative light units and 848862 relative light units
Luciferase activity, Trial 1 to Trial 4 (charge ratio 1, ZnCl2 1 μM): 942667 relative light units and 864670 relative light units and 799992 relative light units and 735470 relative light units
Luciferase activity, Trial 1 to Trial 4 (charge ratio 1, ZnCl2 10 μM): 2145687 relative light units and 1433861 relative light units and 1202748 relative light units and 681970 relative light units
Luciferase activity, Trial 1 to Trial 4 (charge ratio 1, ZnCl2 100 μM): 262768 relative light units and 379927 relative light units and 447492 relative light units and 346567 relative light units
Luciferase activity, Trial 1 to Trial 4 (charge ratio 1, ZnCl2 1000 μM): 437998 relative light units and 443459 relative light units and 502263 relative light units and 273848 relative light units
Luciferase activity, Trial 1 to Trial 4 (charge ratio 2, ZnCl2 0.1 μM): 596911 relative light units and 685311 relative light units and 818392 relative light units and 610040 relative light units
Luciferase activity, Trial 1 to Trial 4 (charge ratio 2, ZnCl2 1 μM): 661803 relative light units and 814409 relative light units and 754168 relative light units and 757898 relative light units
Luciferase activity, Trial 1 to Trial 4 (charge ratio 2, ZnCl2 10 μM): 1498720 relative light units and 1238992 relative light units and 1207690 relative light units and 918114 relative light units
Luciferase activity, Trial 1 to Trial 4 (charge ratio 2, ZnCl2 100 μM): 768327 relative light units and 880621 relative light units and 941720 relative light units and 719251 relative light units
Luciferase activity, Trial 1 to Trial 4 (charge ratio 2, ZnCl2 1000 μM): 199493 relative light units and 48657 relative light units and 189902 relative light units and 123 relative light units
